According to PubChem BioAssay (NCI):
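GI50 is the concentration that inhibits growth by half. TGI is the concentration that stops growth completely.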

Experiments:
Assay in all cases: DTP human tumour cell line panel, 384-well format
786-0 renal = test system: 786-0 renal
A498 renal = test system: A498 renal
A549 NSCLC = test system: A549 NSCLC
ACHN renal = test system: ACHN renal
BT-549 breast = test system: BT-549 breast
CAKI-1 renal = test system: CAKI-1 renal
CCRF-CEM leukemia = test system: CCRF-CEM leukemia
DU-145 prostate = test system: DU-145 prostate
HCC-2998 colon = test system: HCC-2998 colon
HCT-116 colon = test system: HCT-116 colon
HL-60(TB) leukemia = test system: HL-60(TB) leukemia
HOP-62 NSCLC = test system: HOP-62 NSCLC
HOP-92 NSCLC = test system: HOP-92 NSCLC
HS 578T breast = test system: HS 578T breast
IGROV1 ovarian = test system: IGROV1 ovarian
K-562 leukemia = test system: K-562 leukemia
KM12 colon = test system: KM12 colon
LOX IMVI melanoma = test system: LOX IMVI melanoma
M14 melanoma = test system: M14 melanoma
MDA-MB-231 breast = test system: MDA-MB-231 breast
MDA-MB-435 melanoma = test system: MDA-MB-435 melanoma
MDA-MB-468 breast = test system: MDA-MB-468 breast
NCI-H23 lung = test system: NCI-H23 lung
NCI-H322M lung = test system: NCI-H322M lung
NCI-H460 NSCLC = test system: NCI-H460 NSCLC
NCI-H522 lung = test system: NCI-H522 lung
OVCAR-3 ovarian = test system: OVCAR-3 ovarian
OVCAR-4 ovarian = test system: OVCAR-4 ovarian
OVCAR-5 ovarian = test system: OVCAR-5 ovarian
OVCAR-8 ovarian = test system: OVCAR-8 ovarian
PC-3 prostate = test system: PC-3 prostate
RPMI-8226 leukemia = test system: RPMI-8226 leukemia
RXF 393 renal = test system: RXF 393 renal
SF-268 CNS = test system: SF-268 CNS
SF-295 CNS = test system: SF-295 CNS
SF-539 CNS = test system: SF-539 CNS
SK-MEL-2 melanoma = test system: SK-MEL-2 melanoma
SK-MEL-28 melanoma = test system: SK-MEL-28 melanoma
SK-MEL-5 melanoma = test system: SK-MEL-5 melanoma
SK-OV-3 ovarian = test system: SK-OV-3 ovarian
SN12C renal = test system: SN12C renal
SNB-19 CNS = test system: SNB-19 CNS
T-47D breast = test system: T-47D breast
TK-10 renal = test system: TK-10 renal
U251 glioblastoma = test system: U251 glioblastoma
UACC-257 melanoma = test system: UACC-257 melanoma
UO-31 renal = test system: UO-31 renal

Which GI50 ([…]-0 renal) does the source give for `COC1(C(=O)N2Cc3nc(Cl)nc(N[C@H](C)c4cc(N)cc(C(F)(F)F)c4)c3C2)CCOCC1` here?
The GI50 was 16.5 µM.

What about the TGI (786-0 renal) of the same molecule?
Its TGI is 33.2 µM.

And the GI50 (A498 renal)?
Its GI50 is 14.1 µM.

And the TGI (A498 renal)?
The TGI was 35.3 µM.

What about the GI50 (A549 NSCLC) of the same molecule?
The GI50 was 24.5 µM.

What about the TGI (A549 NSCLC) of the same molecule?
Its TGI is over 100 µM.

And the GI50 (ACHN renal)?
The GI50 was 20.4 µM.

And the TGI (ACHN renal)?
The TGI was 67 µM.

What about the GI50 (BT-549 breast) of the same molecule?
The GI50 was 14.5 µM.

What about the TGI (BT-549 breast) of the same molecule?
Its TGI is 28 µM.

What about the GI50 (CAKI-1 renal) of the same molecule?
The GI50 was 6.99 µM.

And the TGI (CAKI-1 renal)?
Its TGI is 35.4 µM.

And the GI50 (CCRF-CEM leukemia)?
Its GI50 is 15.5 µM.

What about the TGI (CCRF-CEM leukemia) of the same molecule?
The TGI was 29.1 µM.

And the GI50 (DU-145 prostate)?
Its GI50 is 19.9 µM.

What about the TGI (DU-145 prostate) of the same molecule?
Its TGI is 50.9 µM.

What about the GI50 (HCC-2998 colon) of the same molecule?
Its GI50 is 15.4 µM.

What about the TGI (HCC-2998 colon) of the same molecule?
Its TGI is 30.3 µM.

What about the GI50 (HCT-116 colon) of the same molecule?
Its GI50 is 16.3 µM.

What about the TGI (HCT-116 colon) of the same molecule?
The TGI was 31.2 µM.

And the GI50 (HL-60(TB) leukemia)?
The GI50 was 16.2 µM.

And the TGI (HL-60(TB) leukemia)?
The TGI was 29.8 µM.

And the GI50 (HOP-62 NSCLC)?
Its GI50 is 15.6 µM.

And the TGI (HOP-62 NSCLC)?
The TGI was 29.3 µM.

And the GI50 (HOP-92 NSCLC)?
Its GI50 is 0.646 µM.

And the TGI (HOP-92 NSCLC)?
The TGI was 18.6 µM.

And the GI50 (HS 578T breast)?
Its GI50 is 12.6 µM.

What about the TGI (HS 578T breast) of the same molecule?
The TGI was 25.7 µM.

And the GI50 (IGROV1 ovarian)?
Its GI50 is 16.1 µM.

What about the TGI (IGROV1 ovarian) of the same molecule?
Its TGI is 33.6 µM.

What about the GI50 (K-562 leukemia) of the same molecule?
Its GI50 is 0.152 µM.

What about the TGI (K-562 leukemia) of the same molecule?
Its TGI is 15 µM.

And the GI50 (KM12 colon)?
Its GI50 is 3.55 µM.

What about the TGI (KM12 colon) of the same molecule?
Its TGI is 22 µM.

And the GI50 (LOX IMVI melanoma)?
Its GI50 is 18.7 µM.

What about the TGI (LOX IMVI melanoma) of the same molecule?
Its TGI is 32.8 µM.

What about the GI50 (M14 melanoma) of the same molecule?
Its GI50 is 17.5 µM.

What about the TGI (M14 melanoma) of the same molecule?
Its TGI is 32.3 µM.

What about the GI50 (MDA-MB-231 breast) of the same molecule?
The GI50 was 22.4 µM.

And the TGI (MDA-MB-231 breast)?
The TGI was 55.3 µM.

What about the GI50 (MDA-MB-435 melanoma) of the same molecule?
The GI50 was 17.9 µM.

And the TGI (MDA-MB-435 melanoma)?
The TGI was 36.9 µM.

And the GI50 (MDA-MB-468 breast)?
The GI50 was 8.68 µM.

And the TGI (MDA-MB-468 breast)?
The TGI was 24.8 µM.

What about the GI50 (NCI-H23 lung) of the same molecule?
The GI50 was 14.2 µM.

What about the TGI (NCI-H23 lung) of the same molecule?
The TGI was 38.6 µM.

What about the GI50 (NCI-H322M lung) of the same molecule?
The GI50 was 13.5 µM.

What about the TGI (NCI-H322M lung) of the same molecule?
Its TGI is 43.2 µM.

And the GI50 (NCI-H460 NSCLC)?
The GI50 was 16.4 µM.

And the TGI (NCI-H460 NSCLC)?
Its TGI is 31 µM.

What about the GI50 (NCI-H522 lung) of the same molecule?
The GI50 was 12.5 µM.

And the TGI (NCI-H522 lung)?
Its TGI is 34.4 µM.

And the GI50 (OVCAR-3 ovarian)?
The GI50 was 13.1 µM.

And the TGI (OVCAR-3 ovarian)?
Its TGI is 26.2 µM.

What about the GI50 (OVCAR-4 ovarian) of the same molecule?
Its GI50 is 15.6 µM.

And the TGI (OVCAR-4 ovarian)?
Its TGI is 43.8 µM.

What about the GI50 (OVCAR-5 ovarian) of the same molecule?
The GI50 was 23.2 µM.

And the TGI (OVCAR-5 ovarian)?
The TGI was 75 µM.

And the GI50 (OVCAR-8 ovarian)?
Its GI50 is 18.4 µM.

And the TGI (OVCAR-8 ovarian)?
Its TGI is 46.1 µM.

What about the GI50 (PC-3 prostate) of the same molecule?
Its GI50 is 16.3 µM.

What about the TGI (PC-3 prostate) of the same molecule?
Its TGI is 31.5 µM.

What about the GI50 (RPMI-8226 leukemia) of the same molecule?
The GI50 was 10.6 µM.

What about the TGI (RPMI-8226 leukemia) of the same molecule?
The TGI was 22.5 µM.

And the GI50 (RXF 393 renal)?
Its GI50 is 13.8 µM.

And the TGI (RXF 393 renal)?
Its TGI is 27.4 µM.

And the GI50 (SF-268 CNS)?
The GI50 was 17.2 µM.

And the TGI (SF-268 CNS)?
The TGI was 34.8 µM.

And the GI50 (SF-295 CNS)?
Its GI50 is 15.1 µM.

And the TGI (SF-295 CNS)?
Its TGI is 32.5 µM.

And the GI50 (SF-539 CNS)?
The GI50 was 15.3 µM.

And the TGI (SF-539 CNS)?
Its TGI is 28.7 µM.

And the GI50 (SK-MEL-2 melanoma)?
Its GI50 is 16.9 µM.

And the TGI (SK-MEL-2 melanoma)?
Its TGI is 31.1 µM.

And the GI50 (SK-MEL-28 melanoma)?
Its GI50 is 18.5 µM.

What about the TGI (SK-MEL-28 melanoma) of the same molecule?
The TGI was 34.9 µM.

And the GI50 (SK-MEL-5 melanoma)?
The GI50 was 15 µM.

What about the TGI (SK-MEL-5 melanoma) of the same molecule?
The TGI was 28.4 µM.

What about the GI50 (SK-OV-3 ovarian) of the same molecule?
Its GI50 is 18.9 µM.

And the TGI (SK-OV-3 ovarian)?
Its TGI is 40.3 µM.

What about the GI50 (SN12C renal) of the same molecule?
Its GI50 is 10.1 µM.

What about the TGI (SN12C renal) of the same molecule?
The TGI was 25.3 µM.

And the GI50 (SNB-19 CNS)?
The GI50 was 19.3 µM.

What about the TGI (SNB-19 CNS) of the same molecule?
The TGI was over 100 µM.

What about the GI50 (T-47D breast) of the same molecule?
The GI50 was 12.4 µM.

And the TGI (T-47D breast)?
Its TGI is 32.5 µM.

What about the GI50 (TK-10 renal) of the same molecule?
Its GI50 is 14.9 µM.

What about the TGI (TK-10 renal) of the same molecule?
The TGI was 35.3 µM.

What about the GI50 (U251 glioblastoma) of the same molecule?
The GI50 was 15.1 µM.

And the TGI (U251 glioblastoma)?
The TGI was 29.7 µM.

And the GI50 (UACC-257 melanoma)?
The GI50 was 18.3 µM.

What about the TGI (UACC-257 melanoma) of the same molecule?
Its TGI is 33.3 µM.

And the GI50 (UO-31 renal)?
The GI50 was 15.2 µM.

What about the TGI (UO-31 renal) of the same molecule?
The TGI was 29.2 µM.
